According to US20090227600A1, “4-(PYRAZINE-2-YL) -PYRROLIDINE -2-CARBOXYLIC ACID COMPOUNDS AND DERIVATIVES THEREOF AS HEPATITIS C VIRUS INHIBITORS” (priority 2004, published 2009):

Target: T1, HCV RNA Polymerase, recombinant NS5B with C-terminal 21 amino acid deletion, genotype 1a strain H77 (Hepatitis C virus genotype 1a, UniProt P27958)
T1 construct: fused on or other part: C-terminal 6His-tag
Test: In vitro HCV RNA-dependent RNA polymerase inhibition assay, genotype 1a C-terminally truncated (delta21) enzyme
Format: biochemical, HCV genotype 1a
Settings: genotype 1a delta21 NS5B enzyme; read-out: IC50 in delta-21 1a enzyme inhibition assay
Text: Incorporation of [^33P]-GMP into RNA was followed by absorption of the biotin labelled RNA polymer by streptavidin containing SPA beads. A synthetic template consisting of biotinylated 13mer-oligoG hybridised to polyrC was used as a homopolymer substrate.
a) Genotype 1a C-Terminally Truncated (delta21) Enzyme
HCV RNA Polymerase [Recombinant NS5B with C-terminal 21 amino acid deletion and C-terminal 6His-tag (Ferrari et al. J. Virol, 73(2), 1999, 1649. ‘Characterization of soluble hepatitis C virus RNA-dependent RNA polymerase expressed in Escherichia coli.’) expressed in E. coli and purified to homogeneity] was added to 25 nM final concentration. Polymerase of genotype 1a was from strain H77 (Yanagi, M., Purcell, R. H., Emerson, S. U. & Bukh, J. (1997), Proceedings of the National Academy of Sciences, USA 94, 8738-8743) containing a sequence change from valine to isoleucine at position 180.
Reaction Conditions were 25 nM enzyme, 1.5 μg/ml oligo-rG13/poly-rC and 0.2 μCi α-^33P-GTP in 0.5 μM GTP (20 Ci/mMol), 20 mM Tris pH 7.5, 23 mM NaCl, 3 mM DTT, 5 mM MgCl2, 1 mM MnCl2.
Enzyme was diluted to 500 nM concentration in 20 mM Tris-HCl, pH 7.5, 25 mM NaCl and 3 mM DTT.
4× concentrated assay buffer mix was prepared using 1M Tris-HCl, pH7.5 (1 mL), 5M NaCl (0.25 mL), 1M DTT (0.12 mL) and Water (8.63 mL), Total 10 mL.
2× concentrated first reagent was prepared using 4× concentrated assay buffer mix (5 μL), 40 u/μL RNasin (0.1 μL), 20 μg/mL polyrC/biotinylated-oligoG (1.6 μL), 500 nM enzyme (1 μL) and Water (2.3 μL), Total 10 μl/well.
2× concentrated second reagent was prepared using 1M MgCl2 (0.1 μL), 1M MnCl2 (0.02 μL), 25 μM GTP (0.4 μL), α-[^33P]-GTP (10 μCi/μL, 0.02 μL) and water (9.5 μL), Total 10 μL/well.
The assay was set up using compound (1 μL in 100% DMSO), first reagent (10 μL), and second reagent (10 μL), Total 21 μL.
The reaction was performed in a U-bottomed, white, 96-well plate. The reaction was mixed on a plate-shaker, after addition of the Enzyme, and incubated for 1 h at 22° C. After this time, the reaction was stopped by addition of 60 μL 1.5 mg/ml streptavidin SPA beads (Amersham) in 0.1 M EDTA in PBS. The beads were incubated with the reaction mixture for 1 h at 22° C. after which 100 μL 0.1 M EDTA in PBS was added. The plate was sealed, mixed centrifuged and incorporated radioactivity determined by counting in a Trilux (Wallac) or Topcount (Packard) Scintillation Counter.
After subtraction of background levels without enzyme, any reduction in the amount of radioactivity incorporated in the presence of a compound, compared to that in the absence, was taken as a measure of the level of inhibition. Ten concentrations of compounds were tested in three- or fivefold dilutions. From the counts per minute, percentage of inhibition at highest concentration tested or IC50s for the compounds were calculated using GraFit 3, GraFit 4 or GraFit 5 (Erithacus Software Ltd.) software packages or a data evaluation macro for Excel based on XLFit Software (IDBS).

T1 sequence (P27958 2421-3011 V2599I, form open): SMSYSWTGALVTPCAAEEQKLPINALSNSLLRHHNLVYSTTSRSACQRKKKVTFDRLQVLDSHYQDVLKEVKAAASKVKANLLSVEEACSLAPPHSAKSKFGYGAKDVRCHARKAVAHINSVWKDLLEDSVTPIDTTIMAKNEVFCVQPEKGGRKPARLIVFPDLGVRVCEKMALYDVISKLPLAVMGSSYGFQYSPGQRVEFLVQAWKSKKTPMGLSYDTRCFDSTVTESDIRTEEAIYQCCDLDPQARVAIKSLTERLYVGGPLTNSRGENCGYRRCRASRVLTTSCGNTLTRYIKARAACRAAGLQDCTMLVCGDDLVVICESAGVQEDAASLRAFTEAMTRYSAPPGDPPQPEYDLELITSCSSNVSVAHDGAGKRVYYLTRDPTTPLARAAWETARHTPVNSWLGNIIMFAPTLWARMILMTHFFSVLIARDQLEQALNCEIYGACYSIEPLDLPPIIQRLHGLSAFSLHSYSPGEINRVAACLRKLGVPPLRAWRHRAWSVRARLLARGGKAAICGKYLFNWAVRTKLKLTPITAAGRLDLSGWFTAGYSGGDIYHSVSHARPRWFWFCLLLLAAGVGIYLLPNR

Compound | IC50 [nM]
COc1cc(C(=O)N2[C@@H](c3nccs3)[C@@H](c3cnccn3)C[C@@]2(CC(C)C)C(=O)O)ccc1C(C)(C)C (racemic) [Compound A, rel-(2S,4S,5R)-2-Isobutyl-1-(4-tert-butyl-3-methoxybenzoyl)-4-(pyrazin-2-yl)-5-(1,3-thiazol-2-yl)pyrrolidine-2-carboxylic acid, reference compound] | > 1000
COc1cc(C(=O)N2[C@@H](c3nccs3)[C@@H](c3cnccn3)C[C@@]2(Cc2ccccn2)C(=O)O)ccc1C(C)(C)C (racemic) [Compound C, rel-(2R,4S,5R)-1-(4-tert-Butyl-3-methoxybenzoyl)-2-(pyridin-2-ylmethyl)-4-(pyrazin-2-yl)-5-(1,3-thiazol-2-yl)pyrrolidine-2-carboxylic acid, reference compound] | 150 to 1000
COc1cc(C(=O)N2[C@@H](c3nccs3)[C@@H](c3cnccn3)C[C@@]2(Cc2c[nH]cn2)C(=O)O)ccc1C(C)(C)C (racemic) [Compound D, rel-(2R,4S,5R)-1-(4-tert-Butyl-3-methoxybenzoyl)-2-(1H-imidazol-4-yl-methyl)-4-(pyrazin-2-yl)-5-(1,3-thiazol-2-yl)-pyrrolidine-2-carboxylic acid, reference compound] | > 1000
COc1cc(C(=O)N2[C@@H](c3cncs3)[C@@H](c3cnccn3)C[C@@]2(CCSC)C(=O)O)ccc1C(C)(C)C (racemic) [Compound E, rel-(2R,4S,5R)-1-(4-tert-Butyl-3-methoxybenzoyl)-2-(2-(methylthio)ethyl)-4-(pyrazin-2-yl)-5-(1,3-thiazol-5-yl)-pyrrolidine-2-carboxylic acid, reference compound] | > 1000
COc1cc(C(=O)N2[C@@H](c3nccs3)[C@@H](c3cnccn3)C[C@@]2(CCS(C)(=O)=O)C(=O)O)ccc1C(C)(C)C (racemic) [Compound F, rel-(2R,4S,5R)-1-(4-tert-Butyl-3-methoxybenzoyl)-2-(2-(methylsulphonyl)ethyl)-4-pyrazin-2-yl-5-(1,3-thiazol-2-yl)-pyrrolidine-2-carboxylic acid, reference compound] | > 1000
COc1cc(C(=O)N2[C@@H](c3nccs3)[C@@H](c3cnccn3)C[C@@]2(Cc2ccccc2)C(=O)O)ccc1C(C)(C)C (racemic) [Compound G, rel-(2R,4S,5R)-1-(4-tert-Butyl-3-methoxybenzoyl)-2-(phenylmethyl)-4-(pyrazin-2-yl)-5-(1,3-thiazol-2-yl)pyrrolidine-2-carboxylic acid, reference compound] | > 1000
COc1cc(C(=O)N2[C@@H](c3nccs3)[C@@H](c3cnccn3)C[C@@]2(Cc2cscn2)C(=O)O)ccc1C(C)(C)C (racemic) [Example 1, rel-(2R,4S,5R)-1-(3-Methoxy-4-tert-butylbenzoyl)-4-(pyrazin-2-yl)-2-(1,3-thiazol-4-ylmethyl)-5-(1,3-thiazol-2-yl)pyrrolidine-2-carboxylic acid] | < 150
COc1cc(C(=O)N2[C@@H](c3nccs3)[C@@H](c3cnccn3)C[C@@]2(Cc2nccs2)C(=O)O)ccc1C(C)(C)C (racemic) [Example 3, rel-(2R,4S,5R)-1-(3-Methoxy-4-tert-butylbenzoyl)-4-(pyrazin-2-yl)-2-(1,3-thiazol-2-ylmethyl)-5-(1,3-thiazol-2-yl)pyrrolidine-2-carboxylic acid] | < 150
COc1cc(C(=O)N2[C@@H](c3ncc(C)s3)[C@@H](c3cnccn3)C[C@@]2(Cc2ccsn2)C(=O)O)ccc1C(C)(C)C (racemic) [Example 5, rel-(2R,4S,5R)-1-(3-Methoxy-4-tert-butylbenzoyl)-5-(5-methyl-1,3-thiazol-2-yl)-4-(pyrazin-2-yl)-2-(1,2-thiazol-3-ylmethyl)pyrrolidine-2-carboxylic acid] | < 150
COc1cc(C(=O)N2[C@@H](c3nccs3)[C@@H](c3cnccn3)C[C@@]2(Cc2ccsn2)C(=O)O)ccc1C(C)(C)C (racemic) [Example 7, rel-(2R,4S,5R)-1-(3-Methoxy-4-tert-butylbenzoyl)-4-(pyrazin-2-yl)-2-(1,2-thiazol-3-ylmethyl)-5-(1,3-thiazol-2-yl)pyrrolidine-2-carboxylic acid] | < 150
COc1cc(C(=O)N2[C@@H](c3ncc(C)s3)[C@@H](c3cnccn3)C[C@@]2(Cn2cccn2)C(=O)O)ccc1C(C)(C)C (racemic) [Example 9, rel-(2R,4S,5R)-1-(3-Methoxy-4-tert-butylbenzoyl)-5-(5-methyl-1,3-thiazol-2-yl)-4-(pyrazin-2-yl)-2-(1H-pyrazol-1-ylmethyl)pyrrolidine-2-carboxylic acid] | < 150
COc1cc(C(=O)N2[C@@H](c3nccs3)[C@@H](c3cnccn3)C[C@@]2(Cn2cccn2)C(=O)O)ccc1C(C)(C)C (racemic) [Example 11, rel-(2R,4S,5R)-1-(3-Methoxy-4-tert-butylbenzoyl)-4-(pyrazin-2-yl)-2-(1H-pyrazol-1-ylmethyl)-5-(1,3-thiazol-2-yl)pyrrolidine-2-carboxylic acid] | < 150
COc1cc(C(=O)N2[C@@H](c3ncc(C)s3)[C@@H](c3cnccn3)C[C@@]2(Cc2nccs2)C(=O)O)ccc1C(C)(C)C (racemic) [Example 13, rel-(2R,4S,5R)-1-(3-Methoxy-4-tert-butylbenzoyl)-5-(5-methyl-1,3-thiazol-2-yl)-4-(pyrazin-2-yl)-2-(1,3-thiazol-2-ylmethyl)pyrrolidine-2-carboxylic acid] | < 150
COc1cc(C(=O)N2[C@@H](c3ncc(C)s3)[C@@H](c3cnccn3)C[C@@]2(Cc2cscn2)C(=O)O)ccc1C(C)(C)C (racemic) [Example 15, rel-(2R,4S,5R)-1-(3-Methoxy-4-tert-butylbenzoyl)-5-(5-methyl-1,3-thiazol-2-yl)-4-(pyrazin-2-yl)-2-(1,3-thiazol-4-ylmethyl)pyrrolidine-2-carboxylic acid] | < 150
COc1cc(C(=O)N2[C@@H](c3nccs3)[C@@H](c3cnccn3)C[C@@]2(CC(C)C)C(=O)O)ccc1C(C)(C)C (single isomer, unassigned; enantiomer a) [Compound B, reference compound] | > 1000
COc1cc(C(=O)N2[C@@H](c3nccs3)[C@@H](c3cnccn3)C[C@@]2(Cc2cscn2)C(=O)O)ccc1C(C)(C)C (single isomer, unassigned; enantiomer a) [Example 2] | < 150
COc1cc(C(=O)N2[C@@H](c3nccs3)[C@@H](c3cnccn3)C[C@@]2(Cc2nccs2)C(=O)O)ccc1C(C)(C)C (single isomer, unassigned; enantiomer a) [Example 4] | < 150
COc1cc(C(=O)N2[C@@H](c3ncc(C)s3)[C@@H](c3cnccn3)C[C@@]2(Cc2ccsn2)C(=O)O)ccc1C(C)(C)C (single isomer, unassigned; enantiomer a) [Example 6] | < 150
COc1cc(C(=O)N2[C@@H](c3nccs3)[C@@H](c3cnccn3)C[C@@]2(Cc2ccsn2)C(=O)O)ccc1C(C)(C)C (single isomer, unassigned; enantiomer a) [Example 8] | < 150
COc1cc(C(=O)N2[C@@H](c3ncc(C)s3)[C@@H](c3cnccn3)C[C@@]2(Cn2cccn2)C(=O)O)ccc1C(C)(C)C (single isomer, unassigned; enantiomer a) [Example 10] | < 150
COc1cc(C(=O)N2[C@@H](c3nccs3)[C@@H](c3cnccn3)C[C@@]2(Cn2cccn2)C(=O)O)ccc1C(C)(C)C (single isomer, unassigned; enantiomer a) [Example 12] | < 150
